Source: US9975874B2, “Factor XIa inhibitors” (Merck Sharp & Dohme Corp., priority 2014, dated 2018)
Read-outs that look alike come from different tables or passages of the source.

Tests used:
[1] = molecular target: purified human Factor XIa (Homo sapiens (Human), UniProt P03951); experiment: Factor XIa Assay; assay type: biochemical
Procedure: The effectiveness of a compound of the present invention as an inhibitor of Coagulation Factor XIa can be determined using a relevant purified serine protease, and an appropriate synthetic substrate. The rate of hydrolysis of the chromogenic or fluorogenic substrate by the relevant serine protease was measured both in the absence and presence of compounds of the present invention. Assays were conducted at room temperature or at 37° C. […] A decrease in the rate of fluorescence change in the presence of inhibitor is indicative of enzyme inhibition. Such methods are known to one skilled in the art. […]
Factor XIa determinations were made in 50 mM HEPES buffer at pH 7.4 containing 150 mM NaCl, 5 mM CaCl2, and 0.1% PEG 8000 (polyethylene glycol; JT Baker or Fisher Scientific). Determinations were made using purified human Factor XIa at a final concentration of 40 pM (Sekisui Diagnostics) and the synthetic substrate, Z-Gly-Pro-Arg-AFC, TFA salt (Sigma #C0980) at a concentration of 100 μM.
Times required to achieve equilibration between enzyme and inhibitor were determined in control experiments. Initial velocities of product formation in the absence (Vo) or presence of inhibitor (Vi) were measured. Assuming competitive inhibition, and that unity is negligible compared Km/[S], [I]/e, and [I]/e (where [S], [I], and e respectively represent the total concentrations, of substrate, inhibitor and enzyme), the equilibrium constant (Ki) for dissociation of the inhibitor from the enzyme can be obtained from the dependence of Vo/Vi on [I] shown in the following equation.

[2] = molecular target: purified Human plasma kallikrein (Homo sapiens (Human), UniProt P03952); experiment: Kallikrein Assay; assay type: biochemical
Sequence of purified Human plasma kallikrein (P03952 391-638): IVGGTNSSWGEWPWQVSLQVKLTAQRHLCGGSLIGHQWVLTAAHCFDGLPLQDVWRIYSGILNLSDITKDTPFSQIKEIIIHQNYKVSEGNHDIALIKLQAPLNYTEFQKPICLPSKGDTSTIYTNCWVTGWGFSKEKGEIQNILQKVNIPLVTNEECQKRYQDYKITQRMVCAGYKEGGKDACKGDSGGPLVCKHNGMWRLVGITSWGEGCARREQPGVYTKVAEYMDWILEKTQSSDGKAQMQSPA
Sequence of purified Human plasma kallikrein (P03952 20-390 partner): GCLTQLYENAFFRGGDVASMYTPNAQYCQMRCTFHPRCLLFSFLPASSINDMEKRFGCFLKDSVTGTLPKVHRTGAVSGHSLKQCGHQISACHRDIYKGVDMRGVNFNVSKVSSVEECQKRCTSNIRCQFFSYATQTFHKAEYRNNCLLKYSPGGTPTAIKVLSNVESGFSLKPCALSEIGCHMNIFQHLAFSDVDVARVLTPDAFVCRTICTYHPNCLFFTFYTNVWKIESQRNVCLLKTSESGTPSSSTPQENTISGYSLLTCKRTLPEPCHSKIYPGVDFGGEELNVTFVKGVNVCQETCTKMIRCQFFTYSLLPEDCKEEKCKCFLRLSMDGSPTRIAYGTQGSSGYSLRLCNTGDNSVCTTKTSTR
Procedure: The effectiveness of a compound of the present invention as an inhibitor of Kallikrein can be determined using a relevant purified serine protease, and an appropriate synthetic substrate. The rate of hydrolysis of the chromogenic or fluorogenic substrate by the relevant serine protease was measured both in the absence and presence of compounds of the present invention. Assays were conducted at room temperature or at 37° C. […] A decrease in the rate of fluorescence change in the presence of inhibitor is indicative of enzyme inhibition. Such methods are known to one skilled in the art. The results of this assay are expressed as the inhibitory constant, Ki.
Kallikrein determinations were made in 50 mM HEPES buffer at pH 7.4 containing 150 mM NaCl, 5 mM CaCl2, and 0.1% PEG 8000 (polyethylene glycol; Fisher Scientific). Determinations were made using purified Human plasma kallikrein at a final concentration of 0.5 nM (Enzyme Research Laboratories) and the synthetic substrate, Acetyl-K-P-R-AFC (Sigma # C6608) at a concentration of […].
Times required to achieve equilibration between enzyme and inhibitor were determined in control experiments. The reactions were performed under linear progress curve conditions and fluorescence increase measured at 405 Ex/510 Em nm. […] IC50 was determined by inflection point from a four parameter logistic curve fit. Ki was calculated using the Cheng Prusoff equation, Ki=IC50/(1+([S]/Km)).

[3] = substrate Z-Gly-Pro-Arg-AFC 100 μM, 40 pM enzyme, pH 7.4, read-out: FXIa IC50
[4] = Plasma kallikrein, substrate Acetyl-K-P-R-AFC, 0.5 nM enzyme, pH 7.4, read-out: PK IC50

Sequence of purified human Factor XIa (P03951 388-625): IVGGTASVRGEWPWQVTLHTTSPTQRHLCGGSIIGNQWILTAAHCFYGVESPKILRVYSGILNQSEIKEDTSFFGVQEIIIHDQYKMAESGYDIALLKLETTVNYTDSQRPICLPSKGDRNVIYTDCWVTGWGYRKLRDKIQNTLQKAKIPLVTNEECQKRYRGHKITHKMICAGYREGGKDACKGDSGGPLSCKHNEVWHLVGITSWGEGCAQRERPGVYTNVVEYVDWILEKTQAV
Sequence of purified human Factor XIa (P03951 19-387 partner): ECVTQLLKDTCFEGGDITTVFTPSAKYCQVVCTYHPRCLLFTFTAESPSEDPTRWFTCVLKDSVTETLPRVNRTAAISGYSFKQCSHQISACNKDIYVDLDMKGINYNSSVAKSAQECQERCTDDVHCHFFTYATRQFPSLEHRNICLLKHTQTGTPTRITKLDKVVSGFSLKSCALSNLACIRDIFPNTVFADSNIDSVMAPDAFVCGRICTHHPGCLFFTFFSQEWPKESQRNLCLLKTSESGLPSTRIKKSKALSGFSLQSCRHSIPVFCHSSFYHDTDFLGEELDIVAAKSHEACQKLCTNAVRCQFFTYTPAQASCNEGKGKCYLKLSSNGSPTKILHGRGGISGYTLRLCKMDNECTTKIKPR

SMILES | IC50 [1, 3] | IC50 [2, 4] | IC50 [1] | IC50 [2]
CCNC(=O)N1CCC(c2cccc(C(Cc3ccccc3)c3ccc(-c4cc(Cl)ccc4-n4cnnn4)c[n+]3[O-])c2)CC1 (racemic) [Example 24, 4-[3-(1-{5-[5-chloro-2-(1H-tetrazol-1-yl)phenyl]-1-oxidopyridin-2-yl}-2-phenylethyl)phenyl]-N-ethylpiperidine-1-carboxamide] | 19 nM | 714 nM |  | 
O=C(O)c1ccc(-c2cccc(C(Cc3ccccc3)c3ccc(-c4cc(Cl)ccc4-n4cnnn4)c[n+]3[O-])c2)cc1 (single isomer, unassigned) [Example 11] | 14 nM | 276 nM |  | 
O=C(O)c1cccc(-c2cccc([C@@H](Cc3ccccc3)c3ccc(-c4cc(Cl)ccc4-n4cnnn4)c[n+]3[O-])c2)c1 (stereo in doubt) [Example 8, 2-(1-(3′-carboxy-[1,1′-biphenyl]-3-yl)-2-phenylethyl)-5-(5-chloro-2-(1H-tetrazol-1-yl)phenyl)pyridine 1-oxide] | 41 nM | 6920 nM |  | 
O=C(O)c1cccc(-c2cccc([C@H](Cc3ccccc3)c3ccc(-c4cc(Cl)ccc4-n4cnnn4)c[n+]3[O-])c2)c1 (stereo in doubt) [Example 9, 2-(1-(3′-carboxy-[1,1′-biphenyl]-3-yl)-2-phenylethyl)-5-(5-chloro-2-(1H-tetrazol-1-yl)phenyl)pyridine 1-oxide] | 0.267 nM | 24.9 nM |  | 
COC(=O)Nc1ccc(-c2cccc([C@H](Cc3ccccc3)c3ccc(-c4cc(Cl)ccc4-n4cnnn4)c[n+]3[O-])c2)cc1 [Example 3, (S)-5-(5-Chloro-2-(1H-tetrazol-1-yl)phenyl)-2-(1-(4′-((methoxycarbonyl)amino)-[1,1′-biphenyl]-3-yl)-2-phenylethyl)pyridine 1-oxide] | 2.07 nM | 34.3 nM |  | 
CS(=O)(=O)c1ccc(-c2cccc(C(Cc3ccccc3)c3ccc(-c4cc(Cl)ccc4-n4cnnn4)c[n+]3[O-])c2)cc1 (centres unmarked) [Example 4] | 38.9 nM | 4660 nM |  | 
CS(=O)(=O)c1ccc(-c2cccc([C@H](Cc3ccccc3)c3ccc(-c4cc(Cl)ccc4-n4cnnn4)c[n+]3[O-])c2)cc1 [Example 6] | 31.1 nM | 1110 nM |  | 
O=C(O)c1cccc(-c2cc(F)cc([C@H](Cc3ccccc3)c3ccc(-c4cc(Cl)ccc4-n4cnnn4)c[n+]3[O-])c2)c1 [Example 14] | 0.301 nM | 19.1 nM |  | 
NC(=O)c1cccc(-c2cc(F)cc([C@H](Cc3ccccc3)c3ccc(-c4cc(Cl)ccc4-n4cnnn4)c[n+]3[O-])c2)c1 [Example 16] | 3.34 nM | 178 nM |  | 
O=C(O)c1cccc(-c2cccc(C(CC3CC3)c3ccc(-c4cc(Cl)ccc4-n4cnnn4)c[n+]3[O-])c2)c1 (centres unmarked) [Example 18] | 12 nM | 250 nM |  | 
CCNC(=O)N1CCC(c2cccc([C@H](Cc3ccccc3)c3ccc(-c4cc(Cl)ccc4-n4cnnn4)c[n+]3[O-])c2)CC1 [Example 28, 4-{3-[(1S)-1-{5-[5-chloro-2-(1H-tetrazol-1-yl)phenyl]-1-oxidopyridin-2-yl}-2-phenylethyl]phenyl}-N-ethylpiperidine-1-carboxamide] | 7.25 nM | 271 nM |  | 
O=C(C1CC1(F)F)N1CCC(c2cccc([C@H](Cc3ccccc3)c3ccc(-c4cc(Cl)ccc4-n4cnnn4)c[n+]3[O-])c2)CC1 (stereo partly drawn) [Example 30, 5-[5-chloro-2-(1H-tetrazol-1-yl)phenyl]-2-[(1S)-1-(3-{1-[(2,2-difluoro-cyclopropyl)carbonyl]piperidin-4-yl}phenyl)-2-phenylethyl] pyridine 1-oxide] | 28.6 nM | 820 nM |  | 
O=C(C1CCCO1)N1CCC(c2cccc([C@H](Cc3ccccc3)c3ccc(-c4cc(Cl)ccc4-n4cnnn4)c[n+]3[O-])c2)CC1 (stereo partly drawn) [Example 31, 5-[5-chloro-2-(1H-tetrazol-1-yl)phenyl]-2-[(1S)-2-phenyl-1-{3-[1-(tetrahydrofuran-2-ylcarbonyl)piperidin-4-yl]phenyl}ethyl] pyridine 1-oxide] | 10.8 nM | 336 nM |  | 
O=C1CC(C(=O)N2CCC(c3cccc([C@H](Cc4ccccc4)c4ccc(-c5cc(Cl)ccc5-n5cnnn5)c[n+]4[O-])c3)CC2)C1 [Example 32, 3-[(4-{3-[(1S)-1-{5-[5-chloro-2-(1H-tetrazol-1-yl)phenyl]-1-oxidopyridin-2-yl}-2-phenylethyl]phenyl}piperidin-1-yl)carbonyl] cyclobutanone] | 11.1 nM | 324 nM |  | 
COCCC(=O)N1CCC(c2cccc([C@H](Cc3ccccc3)c3ccc(-c4cc(Cl)ccc4-n4cnnn4)c[n+]3[O-])c2)CC1 [Example 33, 5-[5-chloro-2-(1H-tetrazol-1-yl)phenyl]-2-[(1S)-1-{3-[1-(3-methoxy-propanoyl)piperidin-4-yl]phenyl}-2-phenylethyl] pyridine 1-oxide] | 11.2 nM | 376 nM |  | 
O=C(C1CC1)N1CCC(c2cccc([C@H](Cc3ccccc3)c3ccc(-c4cc(Cl)ccc4-n4cnnn4)c[n+]3[O-])c2)CC1 [Example 34, 5-[5-chloro-2-(1H-tetrazol-1-yl)phenyl]-2-[(1S)-1-{3-[1-(cyclopropyl-carbonyl)piperidin-4-yl]phenyl}-2-phenylethyl] pyridine 1-oxide] | 10.6 nM | 371 nM |  | 
O=C(C1CCO1)N1CCC(c2cccc([C@H](Cc3ccccc3)c3ccc(-c4cc(Cl)ccc4-n4cnnn4)c[n+]3[O-])c2)CC1 (stereo partly drawn) [Example 35, 5-[5-chloro-2-(1H-tetrazol-1-yl)phenyl]-2-[(1S)-1-{3-[1-(oxetan-2-ylcarbonyl)piperidin-4-yl]phenyl}-2-phenylethyl] pyridine 1-oxide] | 12.2 nM | 403 nM |  | 
COCC(=O)N1CCC(c2cccc([C@H](Cc3ccccc3)c3ccc(-c4cc(Cl)ccc4-n4cnnn4)c[n+]3[O-])c2)CC1 [Example 36, 5-[5-chloro-2-(1H-tetrazol-1-yl)phenyl]-2-[(1S)-1-{3-[1-(methoxyacetyl)piperidin-4-yl]phenyl}-2-phenylethyl] pyridine 1-oxide] | 8.17 nM | 382 nM |  | 
O=C(CF)N1CCC(c2cccc([C@H](Cc3ccccc3)c3ccc(-c4cc(Cl)ccc4-n4cnnn4)c[n+]3[O-])c2)CC1 [Example 38, 5-[5-chloro-2-(1H-tetrazol-1-yl)phenyl]-2-[(1S)-1-{3-[1-(fluoroacetyl)piperidin-4-yl]phenyl}-2-phenylethyl] pyridine 1-oxide] |  |  | 10.9 nM | 322 nM
NC(=O)C(=O)N1CCC(c2cccc([C@H](Cc3ccccc3)c3ccc(-c4cc(Cl)ccc4-n4cnnn4)c[n+]3[O-])c2)CC1 [Example 39, 2-(4-{3-[(1S)-1-{5-[5-chloro-2-(1H-tetrazol-1-yl)phenyl]-1-oxidopyridin-2-yl}-2-phenylethyl]phenyl}piperidin-1-yl)-2-oxoacetamide] | 9.95 nM | 113 nM |  | 
O=C(C1COC1)N1CCC(c2cccc([C@H](Cc3ccccc3)c3ccc(-c4cc(Cl)ccc4-n4cnnn4)c[n+]3[O-])c2)CC1 [Example 40] | 11.8 nM | 413 nM |  | 
COCCOC(=O)N1CCC(c2cccc([C@H](Cc3ccccc3)c3ccc(-c4cc(Cl)ccc4-n4cnnn4)c[n+]3[O-])c2)CC1 [Example 45, 2-methoxyethyl 4-{3-[(1S)-1-{5-[5-chloro-2-(1H-tetrazol-1-yl)phenyl]-1-1-oxidopyridin-2-yl}-2-phenylethyl]phenyl} piperidine-1-carboxylate] | 43.9 nM | 659 nM |  | 
